“Also recorded” adds a separate entry of the source. Bridge positions count the residues as written; N and C are the ends. Square brackets hold non-standard residues; d marks the D form. Peptide text beside a SMILES is read from it. S5 = C=CCCC[C@](C)(N)C(=O)O
Key:
A549 cells = experiment: Confocal microscopy of FITC-labeled peptides, cell permeability; type: cell-based
Description: To determine whether this was a result of poor cell permeability by compounds N2S and N3S, fluorophore labeled versions of these peptides were generated, and confocal microscopy was used to determine the abilities of these peptides to enter cells (FIG. 5C).
Briefly, A549 cells at 9.5×10^4 cells/ml in 600 μl media were plated on 10 mm glass-bottomed, 24-well plates (Chemglass Life Sciences Cell Culture Plate, 24-Well, Fisher Scientific, Waltham, MA) and cultured for overnight at 37 °C, 5% CO2, in complete growth medium (RPMI supplemented with 10% fetal calf serum, L-glutamine, and non-essential amino acids). The next day, cells were treated with fresh, pre-warmed complete growth medium supplemented with the desired FITC-labeled peptide or DMSO vehicle control at a final concentration of 100 μM FITC labeled peptide and 1% DMSO. After 90 minutes of treatment, cells were washed three times in warm PBS to remove excess peptide from the cell surface and left in modified Krebs-Ringer buffer solution [KRBH: 134 mM NaCl. 3.5 mM KCl. 1.2 mM KH2PO4, 0.5 mM MgSO4, 1.5 mM CaCl2), 5 mM NaHCO3, 10 mM HEPES (pH 7.4)] containing Hoechst stain at 1 μg/ml. Cells were immediately analyzed under a Nikon A1 confocal microscope (Resonant). The images were taken at 20× magnification with fluorescence excitation wavelengths at 409 for the Hoechst and 488 for the FITC. Images were processed using NIS-Elements AR. Dietrich et al., Cell permeable stapled peptide inhibitor of Wnt signaling that targets 0-catenin protein-protein interactions, Cell Chemical Biology 24(8): 958-968.e5 (2017); Dougherty et al., Enhancing the cell-permeability of stapled peptides with a cyclic cell-penetrating peptide, J Medicinal Chemistry 62(22): 10098 (2019).

MafG [1] = biological target: T1, MafG (Homo sapiens, UniProt O15525); experiment: Surface plasmon resonance (SPR); type: binding
T1 construct: made in house; host or cells: E. coli Rosetta (DE3), vector pET15B, Ni-NTA purified
Description: To determine the affinity of binding between MafG and compound NIS, surface plasmon resonance (SPR) was performed with biotin-labeled compound NIS and His-MafG. For all SPR-binding measurements, a Biacore 100-Instrument (Biacore-GE) was used. Binding between MafG and biotin-labeled compound NIS peptide was performed by first immobilizing the biotin N1S peptide on a SA chip (Cytiva, Marlborough, MA). The binding buffer (150 mM NaCl, 10 mM HEPES, pH 7.5, 1 mM MgCl2, 1 mM […] (TCEP) and 0.05% P-20) was used. Biotin-compound NIS (1 μM) was injected at a rate of 10 μl min^−1 for 10 minutes, immobilizing approximately 528 response units. Increasing concentrations of MafG (two-fold dilutions between 2.5 μM and 0.100 μM, including two blanks) were subsequently passed over the Biotin-compound N1S functionalized chip as well as a streptavidin reference surface. Multiple cycle analysis was carried out, without regenerating the chip between different MafG concentrations. Binding data was reference normalized and processed using Prism software, A one-site binding model was applied to the processed data set to determine binding parameters of MafG binding to N1S.

HEK-293T cells = experiment: Toxicity to the cells in the luciferase assay; type: cell-based; settings: 16 hours, listed as NIS
Description: The peptides from Example 1 were screened for Nrf2 inhibition using a previously developed dual luciferase assay. Ren et al., Brusatol enhances the efficacy of chemotherapy by inhibiting the Nrf2-mediated defense mechanism, Biological Sciences 108(4): 1433-1438 (2011). Briefly, HEK-293T cells stably expressing ARE-firefly luciferase and TK-Renilla luciferase were used. The cells were treated with different concentrations of compounds N1 (SEQ ID NO: 3), N1 S (SEQ ID NO: 6), N2 (SEQ ID NO: 4), N2S (SEQ ID NO: 7), N3 (SEQ ID NO: 5), and N3S (SEQ ID NO: 8) for 16 hours. The cells were lysed in 1× passive lysis buffer, and both firefly luciferase and Renilla luciferase activities were measured using the Promega Dual-Luciferase™ Reporter (DLR™) Assay System and a luminometer (Turner Biosystems 20/20^n Luminometer). The samples were in triplicate for all concentrations of compounds (n=3).

[2] = test system: A549 non-small cell lung cancer cells; experiment: Incucyte live-cell analysis of combination with cisplatin; synergy by Chou-Talalay method; type: cell-based; settings: relatively low concentrations of cisplatin, varying concentrations of N1S
Description: Cl values<1 were synergistic (red), CI values=1 were additive (green), and CI values>1 were antagonistic (not observed).
NTS, cisplatin, or a combination thereof. Error bars represent the standard deviation between three technical replicates. The data are representative of three independent experiments.
The ability of compound N1S to increase sensitivity to chemotherapeutics was examined. A549 non-small cell lung cancer cells were seeded into a Corning® 96-Well Cell Culture Plate (clear, sterile, non-treated) and incubated for 24 hours. The cells were treated with cisplatin alone, compound NIS alone, or in combination. Immediately following treatment, the cells were placed into an Incucyte® S3 Live-Cell Analysis Instrument (Sartorius AG, Gottingen, Germany) and imaged every two hours for three days. The Incucyte® S3's analytical software was used to calculate cell confluency at each time point. Synergy was determined using the Chou-Talalay method.

MafG [3] = biological target: T1, MafG; experiment: Immunoprecipitation (biotinylated pull-down) assay; type: binding; settings: 20-fold unlabeled N1S
Description: To show direct interaction between compound NIS and MafG, an immunoprecipitation assay was carried out with His-tagged, purified MafG and biotin-labeled compound NTS peptide. Briefly, a Pierce™ Biotinylated Protein Interaction Pull-Down Kit was purchased from Thermo Fisher, and manufacturer's instructions were followed. Purified His-tagged MafG and biotin-tagged NIS were used as […] proteins. For competition experiments, 20× unlabeled NIS was added after 1 hour incubation with MafG.

T1 sequence (O15525 whole entry): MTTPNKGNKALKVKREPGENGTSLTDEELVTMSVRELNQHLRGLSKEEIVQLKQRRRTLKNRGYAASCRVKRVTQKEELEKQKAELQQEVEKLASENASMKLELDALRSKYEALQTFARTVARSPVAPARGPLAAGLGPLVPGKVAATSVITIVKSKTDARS

With `CC[C@H](C)[C@H](NC(C)=O)C(=O)N[C@H](C(=O)N[C@@H](CCC(=O)O)C(=O)N[C@@H](CC(C)C)C(=O)N[C@@H](CCC(=O)O)C(=O)N[C@@]1(C)CCCC=CCCC[C@@](C)(C(=O)N[C@@H](CC(C)C)C(=O)N[C@@H](CCCCN)C(=O)N[C@@H](CC(=O)O)C(=O)N[C@@H](CCC(=O)O)C(=O)N[C@@H](CCCCN)C(=O)N[C@@H](CCC(=O)O)C(N)=O)NC(=O)[C@H](CC(=O)O)NC(=O)[C@H](CC(C)C)NC(=O)[C@H](CC(=O)O)NC1=O)C(C)C` [N1S] (Ac-IVELE[S5]DLD[S5]LKDEKE-NH2; staple 6-10) the “cellular and nuclear permeability” value (A549 cells; FITC-labeled peptide, 100 μM, 90 minutes, A549 cells) was “good”, the entry into cells (A549 cells; summary statement) was “can enter cells” and the Kd (MafG [1]; biotin-labeled N1S on SA chip, His-MafG passed over, one-site binding model, read-out: dissociation constant) was 337 nM. The “direct binding to MafG” value (MafG [1]; summary of in vitro analysis) was “directly binds MafG”, the “toxicity to the cells” value (HEK-293T cells) was “no toxicity; also recorded: without showing toxicity” and the synergy with cisplatin [2] was “synergy was observed; also recorded: strong synergy”. The “competition of N1S-biotin/MafG interaction by unlabeled peptide” value (MafG [3]) was “could be competed away”.
